# Several values for one entry are separate records, joined by “and”; a condition that tells them apart may be missing. Equal values may be shown once. Read-outs that look alike come from different tables or passages of the source.
# Legend:
# Pseudomonas aeruginosa [1] = experiment: Minimum inhibitory concentration (NCCLS broth microdilution); type: cell-based; settings: LB media with 0.2% glucose; 35° C. for 20-24 hours
# Protocol: The minimum inhibitory concentrations (MICs) for several of the specific biofilm inhibitors described herein were determined against several targets, including P. aeruginosa, E. coli, and Staphylococcus aureus. The MICs of the biofilm inhibitors were measured using the reference broth microdilution method recommended by the National Committee for Clinical Laboratory Standards (NCCLS). […] In each assay, positive and negative controls were employed, wherein the positive control included an antimicrobial agent with a known potency range that was used to ensure proper assay performance. The negative control, generally, included the solvent in which the test compounds were dissolved. In this example, the wells correlating to the negative controls included ethanol (without any biofilm inhibitors). […] Thus, each well contained a final volume of approximately 200 μl (not including the volume of the concentrated inhibitor). […] After bacterial inoculation and loading of test and control samples, the plate was incubated in an ambient air environment at 35° C. for 20-24 hours. The plate was subsequently rinsed, stained, and analyzed in accordance with the procedures described in Example 1. […] The minimum inhibitory concentrations were calculated as the lowest inhibitor concentration at which biofilm inhibition was observed.
# Staphylococcus aureus = experiment: as above; type: cell-based; settings: LB media with 0.2% glucose; 35° C. for 20-24 hours
# Protocol: (§1) The minimum inhibitory concentrations (MICs) for several of the specific biofilm inhibitors described herein were determined against several targets, including P. aeruginosa, E. coli, and Staphylococcus aureus. The MICs of the biofilm inhibitors were measured using the reference broth microdilution method recommended by the National Committee for Clinical Laboratory Standards (NCCLS).
# (§2) […]. The negative control, generally, included the solvent in which the test compounds were dissolved. In this example, the wells correlating to the negative controls included ethanol (without any biofilm inhibitors).
# (§3) In this example, 150 μl of sterile media was added to each well (LB media with 0.2% glucose), along with appropriate volumes of concentrated solutions of the inhibitors to be tested, followed by 50 μl of bacterial inoculum. Thus, each well contained a final volume of approximately 200 μl (not including the volume of the concentrated inhibitor). […]. The plate was subsequently rinsed, stained, and analyzed in accordance with the procedures described in Example 1.
# (§4) Tables 7, 8, and 9 summarize the data observed and, specifically, the MICs calculated for the several compounds referenced therein against P. aeruginosa, E. coli, and S. aureus, respectively. The minimum inhibitory concentrations were calculated as the lowest inhibitor concentration at which biofilm inhibition was observed.
# Pseudomonas aeruginosa [2] = experiment: Microtiter plate biofilm inhibition assay (crystal violet); type: cell-based; settings: 10 μg/ml; LB media with 0.2% glucose; 24 hours at room temperature; average of three wells
# Protocol: A microtiter plate assay was used to quantitatively measure the effect each tested compound had on the ability of bacteria to form a biofilm. In this example, a concentrated solution of each compound tested was loaded separately into three separate wells of a polystyrene microtiter plate. In addition, each assay included triplicate wells correlating to negative and positive controls. For the positive controls, biofilm inhibitors of known activity were used, whereas no inhibitors were added to wells correlating to negative controls. […] Thus, each well contained a final volume of approximately 200 μl (not including the volume of the concentrated inhibitor). […] The microtiter plates were then placed on a shaker for 24 hours at room temperature. After the 24 hour incubation period, the microtiter plate was removed from the shaker, rinsed, and stained. During the rinsing step, the test compound, media, and bacterial inoculum solution was drained from the plate, approximately 300 μl of 0.1M phosphate buffered saline (PBS) was added to each well, which was subsequently drained from the plate. The rinsing step removed any suspended cells from the assay. 0.1% crystal violet stain was added to each well for approximately 20 minutes. Next, the crystal violet solution was drained from the microtiter plate. The plate was rinsed with PBS as described above four (4) times to remove any excess stain from the plate. Following the PBS rinsing steps, the plate was eluted with 250 μl/well of ethanol, which improved the detection of the stain. The plate was immediately analyzed spectrophotometrically at 540 nm using a microtiter plate reader. The inhibitory effect each compound had on the bacteria's ability to form a biofilm on the surface of each well was determined as follows: The absorbance values observed for each set of three (3) wells correlating with a test compound or control were averaged. The average absorbance value for each test compound was compared to the average absorbance value of the negative control (the positive control was employed to verify proper assay function). In general, biofilm inhibition activity is inversely proportional to absorbance values, whereby, for example, low absorbance values correlate with significant inhibition activity and high absorbance values correlate with small or no inhibition activity. The approximate percent inhibition observed for each compound was calculated by comparing the average absorbance value for each test compound to the average absorbance value for the negative controls. Table 2 summarizes the average percent inhibition observed for the tested compounds listed against biofilms generated by Pseudomonas aeruginosa.
# P. aeruginosa = settings: 10 μg/mL
# Protocol: In general, flow cell analysis begins by inoculating a microorganism into test and control flow cells along with the appropriate growth media (which may vary depending upon the organism involved). The microorganisms are maintained in the flow cells until they have produced biofilms having the desired coverage and thickness. Thereafter, the test flow cells are treated with appropriate concentrations of test inhibitors. […] Such negative controls may be used as reference points when measuring biofilm inhibition activity.
# After the appropriate flow cells are treated with the test inhibitors, Live/Dead stain is applied to each flow cell for approximately 45 minutes. Any currently-available Live/Dead stain may be employed in this procedure, such as LIVE BacLight™ Bacterial Gram stain (Molecular Probes, Inc., Eugene, Oreg., USA). The biofilm is subsequently rinsed with sterile media to remove excess stain, and the sample is transferred to a confocal microscope for imaging. The Live/Dead stain differentially stains the bacterial cells with green for Live and red for Dead. In a flow cell environment, it is generally understood that bacteria require the presence of biofilms to propagate. Accordingly, the activity of a biofilm inhibitor may be indirectly measured by comparing the number of live bacterial cells included in a flow cell that contained a test inhibitor to that of a negative control.
# The negative control flow cells included the inoculum in LB media with 0.2% glucose without any inhibitors. […] The test and control cells were subsequently stained and analyzed as described above.
# In this example, the number of live colony forming units (CFU) detected in the sample flow cells were compared to that of the negative control to indirectly measure biofilm inhibition.
# Escherichia coli = experiment: Minimum inhibitory concentration (NCCLS broth microdilution); type: cell-based; settings: LB media with 0.2% glucose; 35° C. for 20-24 hours
# Protocol: as §1, §2, §3, §4
# [3] = tested on: Pseudomonas aeruginosa strain PAO 1; experiment: Rotating disk reactor biofilm test in combination with tobramycin; type: cell-based; settings: 48 hours biofilm; compound 110 approximately 100 μg/mL for 24 hours; tobramycin 100 μg/mL for two hours; polystyrene coupons
# Protocol: In this example, compound 110 was tested for biofilm inhibition with Pseudomonas aeruginosa in combination with Tobramycin. Specifically, biofilm formation of P. aeruginosa was evaluated using a standardized biofilm method with a rotating disk reactor (RDR), which is also known as “ASTM Standard Method #E-2196-02.” The rotating disk reactor consisted of a one-liter glass beaker fitted with a drain spout. The bottom of the vessel contained a magnetically driven rotor with six 1.27 cm diameter coupons constructed from polystyrene. The rotor consisted of a star-head magnetic stir bar upon which a disk was affixed to hold the coupons. The vessel (with the stir bar) was placed on a stir plate and rotated to provide fluid shear. A nutrient solution (AB Trace Medium with 0.3 mM glucose, see Table 5 below for specific formulation) was added through a stopper in the top of the reactor at a flow rate of 5 mL/min. The reactor volume was approximately 180 mL. At a volume of 180 mL, the residence time of the reactors was 36 minutes. The reactors were operated at room temperature (c.a. 26° C.). In this example, two RDRs were operated in parallel with one receiving compound 110 and the other serving as an untreated control. […] The plates were incubated for 24 hours at 37° C. before colony forming units (CFU) were determined.
# [4] = live CFU compared to negative control flow cell
SMILES,MIC (μg/mL) - Pseudomonas aeruginosa (Pseudomonas aeruginosa [1]) [µg/mL],Biofilm Inhibition- Pseudomonas aeruginosa (Pseudomonas aeruginosa [2]) [%],also measured
"C[C@@H]1[C@H]2C3=CC[C@@H]4[C@@]5(C)CC[C@H](OC(=O)/C=C\c6ccc(O)cc6)C(C)(C)[C@@H]5CC[C@@]4(C)[C@]3(C)CC[C@@]2(C(=O)O)CC[C@]1(C)O (relative stereo) [Compound 188, 3β-O-cis-p-coumaroyl-20β-hydroxy-12-ursen-28-oic acid]",>10,–,–
C[C@H]1[C@H](CO)C[C@@H](C(=O)O)C2CC[C@]3(C)C(=CCC4[C@@]5(C)CC[C@H](O)C(C)(C)C5CC[C@]43C)[C@@H]21 (some centres unmarked) [Compound 99],>10,30,MIC (μg/mL) - Staphylococcus aureus (Staphylococcus aureus): >32 µg/mL
CC1(C)C[C@@H](C(=O)O)C2CCC3C(=CCC4C3(C)CCC3C4(C)C[C@@H](O)[C@H](O)C3(C)C)[C@@H]2C1 (some centres unmarked) [Compound 107],>10,46,–
"COc1cc(/C=C/C(=O)OC2C(O)CC3(C)C(CCC4(C)C3CC=C3C5C(C)C(C)CCC5(C(=O)O)CCC34C)C2(C)C)ccc1O (stereo not drawn) [Compound 116, 3α-O-trans-feruloyl-2α-hydroxy-12-ursen-28-oic acid]",>10,–,"Flow Cell with Compound 116 (CFU), Average (P. aeruginosa; LB media with 0.2% glucose, applied approximately 4 hours after inoculum, average): 1.76E+06 CFU; Flow Cell with Compound 116 (CFU), single flow cell (P. aeruginosa; LB media with 0.2% glucose, applied approximately 4 hours after inoculum, individual values): 2.06E+06 CFU and 1.46E+06 CFU; Log Reduction (P. aeruginosa; [4]): 0.28; Percent Reduction (P. aeruginosa; [4]): 47%; Percent Reduction (P. aeruginosa; live CFU compared to negative control flow cell, listed as compound 116): ~47%"
C[C@H]1[C@H](C)CC[C@]2(C(=O)O)CCC3C(=CCC4[C@@]3(C)CCC3C(C)(C)[C@@H](OC(=O)/C=C/c5ccc(O)cc5)[C@H](O)C[C@@]34C)[C@H]12 (some centres unmarked) [Compound 189],>10,35,–
C[C@@H]1C[C@@H](C(=O)O)C2CC[C@]3(C)C(=CCC4[C@@]5(C)C[C@@H](O)[C@H](O)C(C)(C)C5CC[C@]43C)[C@@H]2[C@]1(C)O (some centres unmarked) [Compound 192],>10,32,–
C[C@@H]1[C@H]2C3=CCC4[C@@]5(C)CC[C@H](O)C(C)(C)C5CC[C@@]4(C)[C@]3(C)CC[C@@]2(C(=O)O)CC[C@]1(C)O (some centres unmarked) [Compound 195],>10,25,MIC (μg/mL) - Staphylococcus aureus (Staphylococcus aureus): >8 µg/mL
C[C@@H]1CC[C@]2(C(=O)O)CC[C@]3(C)C(=CCC4[C@@]5(C)C[C@@H](O)[C@H](O)C(C)(C)C5CC[C@]43C)[C@@H]2[C@]1(C)O (some centres unmarked) [Compound 203],>10,43,–
CC1(C)CC[C@]2(C(=O)O)CC[C@]3(C)C(=CC[C@@H]4[C@@]5(C)CC[C@H](O)C(C)(C)[C@@H]5CC[C@]43C)[C@@H]2C1 [Compound 225],–,–,MIC (μg/mL) - Escherichia coli (Escherichia coli): >10 µg/mL
"NC[C@H]1O[C@H](O[C@H]2[C@H](O)[C@@H](O[C@H]3O[C@H](CO)[C@@H](O)[C@H](N)[C@H]3O)[C@H](N)C[C@@H]2N)[C@H](N)C[C@@H]1O [Tobramycin, reference compound]",–,–,CFU (in log 10) [3]: 6.1 CFU (in log 10)

# Source: patent publication US20090192327A1, “METHODS AND COMPOSITIONS FOR INHIBITING BIOFILMS” (Sequoia Sciences, Inc., priority 2004, published 2009)
